Test results published in ChEMBL document CHEMBL1201862, “PubChem BioAssay data set” (2004).
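Step 1: Grow cells in 96-well plates. Step 2: Expose to compound for 48 hours at 5 concentrations. Step 3: Interpolate endpoints linearly; if unreached, use highest concentration. GI50: concentration for 50% inhibition of growth.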 Calls of active or inactive are those of the source. Rule as the data show it: active = GI50 up to about 1.1 µM and inactive = higher.

Key:
Assay in all cases: NCI tumour cell line growth inhibition, 48 h
[1] = system: A549
[2] = system: ACHN
[3] = system: HCC 2998
[4] = system: HL-60
[5] = system: HOP-92
[6] = system: K562
[7] = system: MCF7
[8] = system: MOLT-4
[9] = system: NCI/ADR-RES
[10] = system: OVCAR-3
[11] = system: OVCAR-5
[12] = system: OVCAR-8
[13] = system: PC-3
[14] = system: RPMI-8226
[15] = system: RXF 393
[16] = system: SK-OV-3
[17] = system: SNB-19
[18] = system: SR
[19] = system: TK-10
[20] = system: UACC-257

Row | SMILES | GI50 [1] | GI50 [2] | GI50 [3] | GI50 [4] | GI50 [5] | GI50 [6] | GI50 [7] | GI50 [8] | GI50 [9] | GI50 [10] | GI50 [11] | GI50 [12] | GI50 [13] | GI50 [14] | GI50 [15] | GI50 [16] | GI50 [17] | GI50 [18] | GI50 [19] | GI50 [20]
1 | COc1cc(N(CCC#N)CCC#N)ccc1C(=N/NC(=O)c1cc(Br)ccc1O)/N=N/c1ccccc1 | 25.4 µM (inactive) | 28.2 µM (inactive) | 23.3 µM (inactive) | 13.9 µM (inactive) | 24.3 µM (inactive) | 19.4 µM (inactive) | 18.9 µM (inactive) | 15.9 µM (inactive) | 32.5 µM (inactive) | 22 µM (inactive) | 38.1 µM (inactive) | 28.4 µM (inactive) | 25.5 µM (inactive) | 17.1 µM (inactive) | 26.4 µM (inactive) | 31.1 µM (inactive) | 32.1 µM (inactive) | 16.9 µM (inactive) | 33.1 µM (inactive) | 24.7 µM (inactive)
2 | Cc1cc2ccccc2n1CC(=O)NCC(C)C | > 100 µM (inactive) | > 100 µM (inactive) | > 100 µM (inactive) | > 100 µM (inactive) | > 100 µM (inactive) | > 100 µM (inactive) | > 100 µM (inactive) | > 100 µM (inactive) | > 100 µM (inactive) | > 100 µM (inactive) | > 100 µM (inactive) | > 100 µM (inactive) | > 100 µM (inactive) | > 100 µM (inactive) | > 100 µM (inactive) | > 100 µM (inactive) | > 100 µM (inactive) | > 100 µM (inactive) | > 100 µM (inactive) | > 100 µM (inactive)
3 | CCSc1nc(COC(=O)NC)c(COC(=O)NC)n1C | > 97.5 µM (inactive) | 16.6 µM (inactive) | > 85.7 µM (inactive) | 82.6 µM (inactive) | > 80.5 µM (inactive) | > 68.1 µM (inactive) | > 70.5 µM (inactive) | 43.4 µM (inactive) | > 100 µM (inactive) | > 100 µM (inactive) | > 100 µM (inactive) | > 100 µM (inactive) | > 82 µM (inactive) | > 97.9 µM (inactive) | 42.8 µM (inactive) | 50.7 µM (inactive) | > 100 µM (inactive) | 51.3 µM (inactive) | > 100 µM (inactive) | > 100 µM (inactive)
4 | COc1nc2nccnc2c(=O)n1C | > 10 µM (inactive) | > 10 µM (inactive) | > 10 µM (inactive) | > 10 µM (inactive) | > 10 µM (inactive) | > 10 µM (inactive) | > 10 µM (inactive) | > 10 µM (inactive) | > 10 µM (inactive) | > 10 µM (inactive) | > 10 µM (inactive) | > 10 µM (inactive) | > 10 µM (inactive) | > 10 µM (inactive) | > 10 µM (inactive) | > 10 µM (inactive) | > 10 µM (inactive) | > 10 µM (inactive) | > 10 µM (inactive) | > 10 µM (inactive)
5 | O=C(c1ccccc1)c1c(C(F)(F)F)[n+]([O-])c2cc(F)c(F)cc2[n+]1[O-] | 2.95 µM (inactive) | 0.0929 µM (active) | 0.589 µM (active) | < 0.144 µM (active) | 0.238 µM (active) | 0.105 µM (active) | 0.349 µM (active) | 0.242 µM (active) | 0.367 µM (active) | 0.653 µM (active) | 1.51 µM (inactive) | 0.634 µM (active) | 0.716 µM (active) | 0.679 µM (active) | 1 µM (active) | 5.97 µM (inactive) | 4.05 µM (inactive) | < 0.01 µM (active) | 0.195 µM (active) | 1.79 µM (inactive)
6 | O=P1(C(O)/C=C/c2ccccc2)N(Cc2ccccc2)[C@H](c2ccccc2)[C@@H](c2ccccc2)N1Cc1ccccc1 (stereo not given in full) | 6.92 µM (inactive) | 27.4 µM (inactive) | 19.6 µM (inactive) | 6.87 µM (inactive) | 11 µM (inactive) | 7.85 µM (inactive) | 12 µM (inactive) | 2.61 µM (inactive) | 26 µM (inactive) | 16.9 µM (inactive) | 21.8 µM (inactive) | 10.2 µM (inactive) | 7.55 µM (inactive) | 3.63 µM (inactive) | 21.3 µM (inactive) | 22.5 µM (inactive) | 24.3 µM (inactive) | 4.75 µM (inactive) | 26 µM (inactive) | 8.97 µM (inactive)
7 | COC(=O)CCC(C)[C@H]1CCC2C3C(C[C@H](OC(C)=O)[C@@]21C)[C@@]1(C)CCC2(C[C@H]1C[C@H]3OC(C)=O)OOC1(CCC(C(C)(C)C)CC1)OO2 (stereo not given in full) | 7.24 µM (inactive) | 5.7 µM (inactive) | 46.3 µM (inactive) | 9.4 µM (inactive) | 6.59 µM (inactive) | 8.69 µM (inactive) | 31.4 µM (inactive) | 7.52 µM (inactive) | > 100 µM (inactive) | 6.85 µM (inactive) | > 100 µM (inactive) | 12.4 µM (inactive) | 6.7 µM (inactive) | 3.91 µM (inactive) | > 100 µM (inactive) | > 100 µM (inactive) | > 100 µM (inactive) | 4.45 µM (inactive) | 17.7 µM (inactive) | 31.8 µM (inactive)
